Measurements as given in ChEMBL document CHEMBL5143690, “Identification of nitrofuranylchalcone tethered benzoxazole-2-amines as potent inhibitors of drug resistant Mycobacterium tuberculosis demonstrating bactericidal efficacy” (Bioorg Med Chem, 2022).
Converted amounts (≈) assume the structure as drawn.

Assays:
Type in all cases: functional
[1] = tested on: Mycobacterium tuberculosis; experiment: Antimycobacterial activity against Mycobacterium tuberculosis H37Rv ATCC 27294 assessed as inhibition of bacterial growth measured after 7 days by resazurin microtitre assay; conditions: H37Rv ATCC 27294, 168 h, time 7 day
[2] = tested on: Escherichia coli; experiment: Antibacterial activity against Escherichia coli ATCC 25922 assessed as reduction in bacterial growth incubated for 16 to 18 hrs by microtiter plate assay; conditions: time 16-18 hrs
[3] = tested on: Staphylococcus aureus; experiment: Antibacterial activity against Staphylococcus aureus ATCC 29213 assessed as reduction in bacterial growth incubated for 16 to 18 hrs by microtiter plate assay; conditions: time 16-18 hrs
[4] = tested on: Klebsiella pneumoniae; experiment: Antibacterial activity against Klebsiella pneumoniae BAA 1705 assessed as reduction in bacterial growth incubated for 16 to 18 hrs by microtiter plate assay; conditions: time 16-18 hrs
[5] = tested on: Acinetobacter baumannii; experiment: Antibacterial activity against Acinetobacter baumannii BAA 1605 assessed as reduction in bacterial growth incubated for 16 to 18 hrs by microtiter plate assay; conditions: time 16-18 hrs
[6] = tested on: Pseudomonas aeruginosa; experiment: Antibacterial activity against Pseudomonas aeruginosa ATCC 27853 assessed as reduction in bacterial growth incubated for 16 to 18 hrs by microtiter plate assay; conditions: time 16-18 hrs
[7] = tested on: Mycobacteroides abscessus; experiment: Antimycobacterial activity against Mycobacterium abscessus ATCC 19977 assessed as inhibition of bacterial growth after 48 hrs by resazurin microtitre assay
[8] = tested on: Mycolicibacterium fortuitum; experiment: Antimycobacterial activity against Mycobacterium fortuitum ATCC 6841 assessed as inhibition of bacterial growth after 48 hrs by resazurin microtitre assay
[9] = tested on: Mycobacteroides chelonae; experiment: Antimycobacterial activity against Mycobacterium chelonae ATCC 6841 assessed as inhibition of bacterial growth after 48 hrs by resazurin microtitre assay

Row | Compound | MIC [1] [µg/mL] | MIC [2] [µg/mL] | MIC [3] [µg/mL] | MIC [4] [µg/mL] | MIC [5] [µg/mL] | MIC [6] [µg/mL] | MIC [7] [µg/mL] | MIC [8] [µg/mL] | MIC [9] [µg/mL]
1 | COc1cc(C2CC(c3ccccc3)=NN2C(C)=O)cc2nc(N)oc12 (configuration not stated) | 0.625 (≈ 1.78 µM) | – | – | – | – | – | – | – | –
2 | CN[C@@H]1[C@H](O[C@H]2[C@H](O[C@H]3[C@H](O)[C@@H](O)[C@H](N=C(N)N)[C@@H](O)[C@@H]3N=C(N)N)O[C@@H](C)[C@]2(O)C=O)O[C@@H](CO)[C@H](O)[C@H]1O [STREPTOMYCIN] | 1 (≈ 1.72 µM) | – | – | – | – | – | – | – | –
3 | COc1ccc(OC)c(C(=O)/C=C/c2ccc3nccnc3c2)c1 | 3.13 (≈ 9.77 µM) | – | – | – | – | – | – | – | –
4 | NNC(=O)c1ccncc1 [ISONIAZID] | 0.03 (≈ 0.219 µM) | – | – | – | – | – | – | – | –
5 | O=C(O)c1ccc(/C=C/C(=O)c2ccc(Nc3nc4ccccc4o3)cc2)cc1 | > 64 | > 64 | > 64 | > 64 | > 64 | > 64 | > 64 | > 64 | > 64
6 | CC[C@@H](CO)NCCN[C@@H](CC)CO [ETHAMBUTOL] | 2 (≈ 9.79 µM) | – | – | – | – | – | – | – | –
7 | CC(=O)N1N=C(c2ccccc2)CC1c1cc(Cl)c2oc(S)nc2c1 (configuration not stated) | 1.25 (≈ 3.36 µM) | – | – | – | – | – | – | – | –
8 | O=C(/C=C/c1ccccc1F)c1ccc(Nc2nc3ccccc3o2)cc1 | > 64 | > 64 | > 64 | > 64 | > 64 | > 64 | > 64 | > 64 | > 64
9 | Cc1ccc(/C=C/C(=O)c2ccc(Nc3nc4ccccc4o3)cc2)cc1 | > 64 | > 64 | > 64 | > 64 | > 64 | > 64 | > 64 | > 64 | > 64
10 | COc1ccc(C(=O)/C=C/c2cc(OC)c(OC)c(OC)c2)cc1Nc1nc2ccccc2o1 | 64 (≈ 139 µM) | > 64 | > 64 | > 64 | > 64 | > 64 | > 64 | > 64 | > 64
11 | O=C(/C=C/c1ccccn1)c1ccc(Nc2nc3ccccc3o2)cc1 | 4 (≈ 11.7 µM) | > 64 | > 64 | > 64 | > 64 | > 64 | > 64 | > 64 | > 64
12 | COc1cc(/C=C/C(=O)c2cccc(Nc3nc4ccccc4o3)c2)cc(OC)c1OC | 8 (≈ 18.6 µM) | > 64 | > 64 | > 64 | > 64 | > 64 | > 64 | > 64 | > 64
13 | COc1ccc(OC)c(/C=C/C(=O)c2ccc(Nc3nc4ccccc4o3)cc2)c1 | > 64 | > 64 | > 64 | > 64 | > 64 | > 64 | > 64 | > 64 | > 64
14 | COc1cc(OC)c(OC)cc1/C=C/C(=O)c1ccc(Nc2nc3ccccc3o2)cc1 | 16 (≈ 37.2 µM) | > 64 | > 64 | > 64 | > 64 | > 64 | > 64 | > 64 | > 64
15 | O=C(/C=C/c1ccncc1)c1ccc(Nc2nc3ccccc3o2)cc1 | 16 (≈ 46.9 µM) | > 64 | > 64 | > 64 | > 64 | > 64 | > 64 | > 64 | > 64
16 | COc1ccc(/C=C/C(=O)c2ccc(Nc3nc4ccccc4o3)cc2)cc1 | 32 (≈ 86.4 µM) | > 64 | > 64 | > 64 | > 64 | > 64 | > 64 | > 64 | > 64
17 | O=C(/C=C/c1ccccc1Br)c1ccc(Nc2nc3ccccc3o2)cc1 | > 64 | > 64 | > 64 | > 64 | > 64 | > 64 | > 64 | > 64 | > 64
18 | COc1cc(/C=C/C(=O)c2ccc(Nc3nc4cc(C(C)(C)C)ccc4o3)cc2)cc(OC)c1OC | 32 (≈ 65.8 µM) | > 64 | > 64 | > 64 | > 64 | > 64 | > 64 | > 64 | > 64

Row | Compound | MIC [1] [µg/mL] | MIC [2] [µg/mL] | MIC [3] [µg/mL] | MIC [4] [µg/mL] | MIC [5] [µg/mL] | MIC [6] [µg/mL] | MIC [7] [µg/mL] | MIC [8] [µg/mL] | MIC [9] [µg/mL]
19 | C[C@H]1COc2c(N3CCN(C)CC3)c(F)cc3c(=O)c(C(=O)O)cn1c23.C[C@H]1COc2c(N3CCN(C)CC3)c(F)cc3c(=O)c(C(=O)O)cn1c23.O [LEVOFLOXACIN] | – | 0.0078 | 0.125 | 64 | – | – | – | – | –
20 | O=C(/C=C/c1ccc([N+](=O)[O-])cc1)c1ccc(Nc2nc3ccccc3o2)cc1 | 32 (≈ 83 µM) | > 64 | > 64 | > 64 | > 64 | > 64 | > 64 | > 64 | > 64
21 | COc1cc(/C=C/C(=O)c2ccc(Nc3nc4cc(Cl)ccc4o3)cc2)cc(OC)c1OC | 8 (≈ 17.2 µM) | > 64 | > 64 | > 64 | > 64 | > 64 | > 64 | > 64 | > 64
22 | O=C(/C=C/c1cccc([N+](=O)[O-])c1)c1ccc(Nc2nc3ccccc3o2)cc1 | > 64 | > 64 | > 64 | > 64 | > 64 | > 64 | > 64 | > 64 | > 64
23 | COc1cc(/C=C/C(=O)c2ccc(Nc3nc4cc([N+](=O)[O-])ccc4o3)cc2)cc(OC)c1OC | 16 (≈ 33.7 µM) | > 64 | > 64 | > 64 | > 64 | > 64 | > 64 | > 64 | > 64
24 | O=C(/C=C/c1ccc(Cl)cc1Cl)c1ccc(Nc2nc3ccccc3o2)cc1 | > 64 | > 64 | > 64 | > 64 | > 64 | > 64 | > 64 | > 64 | > 64
25 | CN(C)c1ccc(/C=C/C(=O)c2ccc(Nc3nc4ccccc4o3)cc2)cc1 | 64 (≈ 167 µM) | > 64 | > 64 | > 64 | > 64 | > 64 | > 64 | > 64 | > 64
26 | COc1ccc(/C=C/C(=O)c2ccc(Nc3nc4ccccc4o3)cc2)c(OC)c1OC | 16 (≈ 37.2 µM) | > 64 | > 64 | > 64 | > 64 | > 64 | > 64 | > 64 | > 64
27 | O=C(/C=C/c1ccccc1Cl)c1ccc(Nc2nc3ccccc3o2)cc1 | > 64 | > 64 | > 64 | > 64 | > 64 | > 64 | > 64 | > 64 | > 64
28 | O=C(/C=C/c1ccc(Br)cc1)c1ccc(Nc2nc3ccccc3o2)cc1 | 64 (≈ 153 µM) | > 64 | > 64 | > 64 | > 64 | > 64 | > 64 | > 64 | > 64
29 | CC(=O)N1N=C(c2ccc3oc(-c4ccc(O)cc4)nc3c2)CC1c1cccs1 (configuration not stated) | 0.8 (≈ 1.98 µM) | – | – | – | – | – | – | – | –
30 | O=C(/C=C/c1ccc(Cl)cc1)c1ccc(Nc2nc3ccccc3o2)cc1 | 64 (≈ 171 µM) | > 64 | > 64 | > 64 | > 64 | > 64 | > 64 | > 64 | > 64
31 | COc1cc(/C=C/C(=O)c2ccc(Nc3nc4cc(C)ccc4o3)cc2)cc(OC)c1OC | 16 (≈ 36 µM) | > 64 | > 64 | > 64 | > 64 | > 64 | > 64 | > 64 | > 64
32 | O=C(/C=C/c1cccc(Cl)c1)c1ccc(Nc2nc3ccccc3o2)cc1 | > 64 | > 64 | > 64 | > 64 | > 64 | > 64 | > 64 | > 64 | > 64
33 | O=C(/C=C/c1ccccc1)c1ccc(Nc2nc3ccccc3o2)cc1 | 16 (≈ 47 µM) | > 64 | > 64 | > 64 | > 64 | > 64 | > 64 | > 64 | > 64
34 | COc1ccc(/C=C/C(=O)c2ccc(Nc3nc4ccccc4o3)cc2)c(OC)c1 | > 64 | > 64 | > 64 | > 64 | > 64 | > 64 | > 64 | > 64 | > 64
35 | COc1ccc(/C=C/C(=O)c2ccc(Nc3nc4ccccc4o3)cc2)cc1OC | 32 (≈ 79.9 µM) | > 64 | > 64 | > 64 | > 64 | > 64 | > 64 | > 64 | > 64
36 | O=C(/C=C/c1ccco1)c1ccc(Nc2nc3ccccc3o2)cc1 | 32 (≈ 96.9 µM) | > 64 | > 64 | > 64 | > 64 | > 64 | > 64 | > 64 | > 64
